The test system of assay [1] is Magnaporthe vegetative mycelia, abc3Δ mutant. It counts as cell-based.
In assay [2] the test system is abc3Δ mutant. It counts as cell-based, Magnaporthe grisea.

Regarding `CCCCNC(=O)n1c(NC(=O)OC)nc2ccccc21` [Benomyl], the “Minimum Inhibitory Concentration (MIC), abc3Δ” value in assay [1] was found to be 2 µg/mL.

Regarding `C[C@H]1CCC/C=C/[C@@H]2C[C@H](O)C[C@H]2[C@H](O)/C=C/C(=O)O1` [Brefeldin A], the “Minimum Inhibitory Concentration (MIC), abc3Δ” value in assay [1] was determined as 40 µg/mL.

As to `OC(Cn1cncn1)(Cn1cncn1)c1ccc(F)cc1F` [Fluconazole], the “Minimum Inhibitory Concentration (MIC), abc3Δ” value in assay [1] was 2500 µg/mL.

With `CCC(=C/[C@H](C)C/C=C/C(C)=C/[C@@H](C)C(=O)[C@@H](C)[C@H](O)[C@@H](C)C/C(C)=C/C(=O)O)/C=C/[C@@H]1OC(=O)C=C[C@@H]1C` [Leptomycin B], the “Minimum Inhibitory Concentration (MIC), abc3Δ” value in assay [1] was 0.0075 µg/mL.

For `CC(C)[C@@H]1NC(=O)[C@H](C)OC(=O)[C@@H](C(C)C)NC(=O)[C@@H](C(C)C)OC(=O)[C@H](C(C)C)NC(=O)[C@H](C)OC(=O)[C@@H](C(C)C)NC(=O)[C@@H](C(C)C)OC(=O)[C@H](C(C)C)NC(=O)[C@H](C)OC(=O)[C@@H](C(C)C)NC(=O)[C@@H](C(C)C)OC1=O` [Valinomycin], in assay [1], the “Minimum Inhibitory Concentration (MIC), abc3Δ” value was determined as 3 µg/mL.

On to `OO` [hydrogen peroxide], for which the “growth under oxidative stress” value in assay [2] is listed as “lethal”.

For the compound Actinomycin D, in assay [1], the “Minimum Inhibitory Concentration (MIC), abc3Δ” value was 3.5 µg/mL.

Turning to Gramicidin D, the “Minimum Inhibitory Concentration (MIC), abc3Δ” value in assay [1] was 180 µg/mL.

The values above are taken from patent publication US8193160B2 (priority 2006, dated 2012).
